Series [1] concerns Pax6, Otx2, Sox2, Sox3, NCAM, Vent1. In words: RT-PCR of neural markers (animal caps or embryos). Type of series: cell-based, Xenopus laevis. The conditions noted are these: animal caps. An excerpt:
RT-PCR Animal caps were dissected from embryos at stage 8.5 and cultured in 67% Leibovitz's L-15 medium, pH 7.5 in the presence or absence of varied concentration of alcohol until stage 22. Total RNA was extracted from cultured animal caps with Trizol reagent (Invitrogen). Primer sets and PCR conditions for NCAM and Pax6 have been described in our previous reports (Peng, Neurobiol. Dis., 2004; Peng, J. Mol. Biol., 2004). PCR products were subject to electrophoresis on TBE gel and visualized by ethidium bromide staining.
Animal cap explant assay. […] Total RNA was extracted from animal caps or whole embryos using TRIZOL reagent (Invitrogen). The total RNA was reverse transcribed using the Superscript system (Invitrogen), and the first strand cDNA of the target gene amplified by PCR.
The Xenopus animal cap is composed of pluripotent cells that can be induced to form neural, mesodermal, or epidermal tissue, and is a useful tissue to assess the activity of various factors on neural development. Animal caps were treated with varied concentrations of alcohol as indicated.

[2] abbreviates: 0.5% alcohol stage 13 to 22, uninjected.
The mark [3] stands for this setting: 0.5% alcohol, pCMS vector-injected embryos.

Read-outs that look alike come from different tables or passages of the source.

The source of these data is patent US20060037085A1, “Animal model for fetal alcohol syndrome and methods of treatment” (priority 2004, published 2006).

Procedure for Xenopus laevis embryos: Midneurala stage embryos were kept in either the control 10% MSS medium or the same medium supplemented with 0.5% alcohol. The embryos were allowed to grow until the control embryos (no alcohol) reached the tadpole stage (stages 45-46). All the embryos were then fixed and their body length and gut morphologies were recorded.
Embryos were injected with pCMS, pCMS-mtPRDX5, pCMS-cpPRDX5 or pCMS-Catalase expression plasmid, and then maintained in medium with or without 0.5% alcohol. When the tadpoles of control group reached stages 45-46, all the tadpoles were fixed and their gut developmental stages and body lengths were measured and used for the correlation studies. […] Embryos were injected with pCMS, pCMS-mtPRDX5, or pCMS-Catalase expression plasmid, and then treated with or without alcohol as indicated. The expression of the gut markers was determined by RT-PCR.
We also examined the correlation between the stage of gut development and body length in each individual tadpole.

Regarding `CCO` [Ethanol, ethanol], the “Otx2, Sox2, and Sox3 expression” value in series [1] (alcohol 0.1% to 0.6%) was “less sensitive to alcohol”. The “expression of the general ventral marker Vent1” value in series [1] (alcohol) is on record as “not seriously affected”. For the same compound, in the series with Xenopus laevis embryos (setting [2]), the “Body length (% no alcohol control)” value worked out at 87 ± 2.7 % no alcohol control, the “Number of embryos in gut developmental stage 43” value is given as 8, the “Number of embryos in gut developmental stage 44” value is given as 7 and the “Number of embryos in gut developmental stage 45” value was found to be 2. The “Number of embryos in gut developmental stage 46” value with Xenopus laevis embryos (setting [2]) worked out at 0. The “Number of embryos in gut developmental stage 42” value with Xenopus laevis embryos (0.5% alcohol stage 13 to 22, uninjected, scored when controls reached stages 45-46) is reported as 3. In addition, in the series with Xenopus laevis embryos (setting [3]), the “Body length (% no alcohol control)” value turned out to be 85 ± 3.1 % no alcohol control, the “Number of embryos in gut developmental stage 42” value was 3, the “Number of embryos in gut developmental stage 43” value is reported as 7 and the “Number of embryos in gut developmental stage 44” value was 9. In the series with Xenopus laevis embryos (setting [3]), the “Number of embryos in gut developmental stage 45” value is given as 1 and the “Number of embryos in gut developmental stage 46” value worked out at 0. Further, in the series on Xenopus laevis embryos (sustained exposure of alcohol from stage 13), the “outcome of sustained alcohol exposure” value is “caused the death of tadpoles at around stages 45-50”. Also, the “gut maturation (looping pattern of the tadpole gut)” value in the series on Xenopus laevis embryos (transient 0.5% alcohol exposure between stages 13-22) is listed as “significant delay in gut maturation”. Further, the “gut morphology, alcohol-treated vs control groups” value with Xenopus laevis embryos (transient alcohol exposure, gut examined at stage 60) was “no difference”.
